According to US10865176B2, “Small molecule modulators of microRNA-34a” (The Chinese University of Hong Kong, priority 2012, dated 2020):
Marks after values point to notes of the source that are not given here.

Tests used:
miR-34a [1] = experiment: qRT-PCR of primary and mature miR-34a in HCC cells; assay type: cell-based, human; conditions: HCC cells (HepG2, FIG. 4B)
Protocol: (§1) Total RNA from cell cultures and HCC xenograft tumors were extracted using Trizol (Invitrogen) according to manufacturer's protocols. Total RNAs were dissolved into nuclease-free ddH2O. For protein extraction, cells and HCC xenograft tumors were lysed in 1×RIPA buffer with 1 mM PMSF and 1× complete protease inhibitor cocktail (Roche, Indianapolis, Ind.). Both RNA and protein were stored at −80° C.
(§2) Total RNA was reversely transcribed into cDNAs using High Capacity cDNA Reverse Transcription Kit (Applied Biosystems, Foster city, CA, USA) and nude RT kit (Invitrogen) individually. qRT-PCR was performed using SYBR Green PCR master mix (TaKaRa, Dalian, China). GAPDH was used as an endogenous control. For measuring miR-34a expression level, qPCR was performed by using SYBR Green PCR master mixture (Invitrogen) and U6 was used as the internal control. All samples were normalized to internal controls and fold changes were calculated by relative quantification (2^−ΔΔct).

miR-34a [2] = experiment: miR-34a reporter luciferase assay in Huh7 cells; assay type: cell-based, human
Protocol: The pMIR-REPORT™ luciferase plasmid (1 μg; Ambion) was sequentially double digested with Sac I and Hind III (10 units each, 50 μL reaction; NEB) and was gel purified. Double stranded insert DNA encoding the miR-34a binding site was synthesized through standard oligonucleotide synthesis methods. The sequences used were Forward: 5′z […]-3′ (SEQ ID NO:1) and Reverse: 5′: […]-3′ (SEQ ID NO:2). The insert was hybridized (heated to 95° C., and cooled to 4° C. over 30 min, then held at 4° C. for 60 min) and ligated with T4 ligase (200 units, 10 μL reaction, 1:10 vector/insert ratio; NEB) into the digested pMIR-REPORT™ luciferase vector. Positive colonies were selected by PCR colony screens, and the construction of the pMIR-REPORT™-miR-34a vector was confirmed by double enzyme digestion with NheI, MluI and Nhe I, Hind III (NEB). The luciferase reporter vector containing the miR-34a promoter was kindly provided by Prof. Mendell J T from Johns Hopkins University (21).
Huh7 cells were seeded into 96-well plates 12 h prior to transfection. MiR-34a reporter and the control vector were respectively co-transfected with Renilla luciferase pRL-SV40 into Huh7 cells. All transfections were performed in triplicate. The cells were incubated at 37° C. for 4 h followed by the replacement of transfection media with standard DMEM growth media with 10 μM of the natural products library (NPL) compounds (Tim Tec; 0.1% DMSO final concentration). This library contains 640 compounds including natural products and their derivatives. After 48 h of incubation, the media was removed and cells were lysed and the luciferase signals were measured by luciferase assay as described below.
MiR-34a reporter, the luciferase reporter vector containing miR-34a promoter and the control vectors were transfected into HCC cells 12 h before compound treatment. The Renilla luciferase vector pRL-SV40 was co-transfected as an internal control. HCC cells were then treated with compound for 48-72 h. The luciferase activity was measured by Dual Luciferase Reporter Assay (Promega) with a Wallac VICTOR^3V luminometer. The ratio of firefly luciferase to Renilla expression was calculated for each of the triplicates.

[3] = HepG2 xenograft model, survival, body weight and side effects
Protocol: 5×10^6 HepG2 cells were suspended in 100 μl serum-free medium and subcutaneously (s.c.) inoculated into the dorsal flanks of nude mice. When tumors reached 5-10 mm in diameter, mice were randomly divided into 4 groups (n=5). […] Vehicle alone and Sorafenib were used as the negative and positive control respectively. Tumor volumes and body weight were measured once every two days. Tumor volume was calculated as [(Length×Width×Height)±2]. Treatment was continued for 24 d. Finally, all mice were sacrificed and tumors were excised. Tumor weight was recorded.

miR-34a [4] = experiment: qRT-PCR of pri-miR-34a and miR-34a in xenografted tumors; assay type: in vivo, nude mice; conditions: excised tumors after 24 d gavage
Protocol: as §1, §2
(§3) Tumor volume was calculated as [(Length×Width×Height)[…]]. Treatment was continued for 24 d. Finally, all mice were sacrificed and tumors were excised. Tumor weight was recorded.

Cyclin D1 and Bcl-2 = experiment: qRT-PCR of Cyclin D1 and Bcl-2 in xenografted tumors; assay type: in vivo, nude mice; conditions: excised tumors after 24 d gavage
Protocol: as §1, §2, §3

HepG2 xenografted tumor = experiment: HepG2 xenografted nude mice model, tumor growth; assay type: in vivo; conditions: 50 mg/kg, gavage once every two days
Protocol: as §3

## O=c1[nH]cc(F)c(=O)[nH]1 [5-Fluorouracil, reference compound]
miR-34a [1]
  miR-34a expression after chemotherapeutic drugs: no effect

## COc1ccc(-c2cc(=O)c3c(O)cc(O)cc3o2)cc1 [Acacetin, 5,7-dihydroxy-4′-methoxyflavone]
miR-34a [2]
  function as miR-34a activator, re-assayed in triplicate with miR-34a reporter system: functions as the miR-34a activators are confirmed

## N.N.[Cl][Pt][Cl] [Cisplatin, reference compound]
miR-34a [1]
  miR-34a expression after chemotherapeutic drugs: no effect

## COc1cccc2c1C(=O)c1c(O)c3c(c(O)c1C2=O)C[C@@](O)(C(=O)CO)C[C@@H]3O[C@H]1C[C@H](N)[C@H](O)[C@H](C)O1 [Doxorubicin, reference compound]
miR-34a [1]
  miR-34a expression after chemotherapeutic drugs: no effect

## CNC(=O)c1cc(Oc2ccc(NC(=O)Nc3ccc(Cl)c(C(F)(F)F)c3)cc2)ccn1 [Sorafenib, reference compound]
[3]; 50 mg/kg group, initial, mean (95% CI)
  Body weight (g) initial: 20.00(95% CI = 18.76 − 21.24)/ g
[3]; 50 mg/kg, end of 24 d treatment, mean (95% CI)
  Body weight (g) end: 24.00(95% CI = 21.22 − 26.78) g
[3]; 50 mg/kg, gavage once every two days, 24 d
  Mice survival (n) initial/end: 5/5
miR-34a [4]
  pri-miR-34a and miR-34a levels in xenografted tumors: no changes
miR-34a [1]
  miR-34a expression after chemotherapeutic drugs: no effect
Cyclin D1 and Bcl-2
  Cyclin D1 and Bcl-2 expression in xenografted tumors: no changes
HepG2 xenografted tumor; 24 d
  Tumor growth inhibition (%): 84.22%
HepG2 xenografted tumor; day 24, mean (95% CI)
  Tumor weight (g): 0.186 (95% CI = 0.14 − 0.23)** g
